Data on 21 compounds can be found in ChEMBL document CHEMBL1144174, “Design and synthesis of 6-fluoro-2-naphthyl derivatives as novel CCR3 antagonists with reduced CYP2D6 inhibition” (Bioorg Med Chem, 2008).

pIC50: −log10 of the molar value. Calls of active or inactive are those of the source. No cut-off for these calls is given here.

Assay [1] addresses T1, C-C chemokine receptor type 3 (Homo sapiens, UniProt P51677).
T1 sequence (P51677 whole entry): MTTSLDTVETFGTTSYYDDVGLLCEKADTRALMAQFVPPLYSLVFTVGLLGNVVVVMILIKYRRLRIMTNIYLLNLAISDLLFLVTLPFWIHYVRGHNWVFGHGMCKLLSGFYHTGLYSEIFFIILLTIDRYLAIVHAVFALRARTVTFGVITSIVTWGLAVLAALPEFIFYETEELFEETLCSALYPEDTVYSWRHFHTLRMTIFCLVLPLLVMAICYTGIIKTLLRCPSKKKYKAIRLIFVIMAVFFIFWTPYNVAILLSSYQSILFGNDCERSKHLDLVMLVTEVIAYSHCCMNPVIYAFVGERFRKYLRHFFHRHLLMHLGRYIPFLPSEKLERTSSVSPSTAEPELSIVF
Nature of the assay: Antagonist activity at CCR3 receptor expressed in mouse B300-19 cells assessed as inhibition of eotaxin-induced calcium influx by spectrophotometry. The assay is classed as functional, cell-based.

In the next assay the target is Cytochrome P450 2D6 (Homo sapiens, UniProt P10635). Description: Inhibition of human CYP2D6 by fluorescence technique in presence of NADP. In kind it is ADME.
Assay [2] deals with C-C chemokine receptor type 2 (Homo sapiens) (UniProt P41597). Description: Inhibition of CCR2 receptor at 10 uM.
For assay [3], the target named is C-C chemokine receptor type 5 (Homo sapiens) (UniProt P51681). Nature of the assay: Inhibition of CCR5 receptor at 10 uM.
Assay [4] concerns the target T2, C-C chemokine receptor type 1 (Homo sapiens) (UniProt P32246).
T2 sequence (whole entry): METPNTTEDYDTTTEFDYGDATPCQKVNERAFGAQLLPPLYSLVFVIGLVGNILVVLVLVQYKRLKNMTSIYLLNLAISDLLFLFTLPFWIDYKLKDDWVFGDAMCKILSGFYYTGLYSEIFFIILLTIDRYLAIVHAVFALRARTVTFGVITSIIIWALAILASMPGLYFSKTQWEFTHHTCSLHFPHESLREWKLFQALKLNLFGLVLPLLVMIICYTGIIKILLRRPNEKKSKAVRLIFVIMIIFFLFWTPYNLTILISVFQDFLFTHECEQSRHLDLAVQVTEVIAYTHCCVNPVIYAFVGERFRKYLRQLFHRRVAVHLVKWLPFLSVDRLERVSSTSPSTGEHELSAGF
Nature of the assay: Inhibition of CCR1 receptor at 10 uM.

A further assay has as its target Cytochrome P450 2C19 (Homo sapiens, UniProt P33261). Description: Inhibition of human CYP2C19. The assay is classed as ADME.
For another assay, the target named is T3, Cytochrome P450 1A2 (Homo sapiens, UniProt P05177).
T3 sequence (P05177 whole entry): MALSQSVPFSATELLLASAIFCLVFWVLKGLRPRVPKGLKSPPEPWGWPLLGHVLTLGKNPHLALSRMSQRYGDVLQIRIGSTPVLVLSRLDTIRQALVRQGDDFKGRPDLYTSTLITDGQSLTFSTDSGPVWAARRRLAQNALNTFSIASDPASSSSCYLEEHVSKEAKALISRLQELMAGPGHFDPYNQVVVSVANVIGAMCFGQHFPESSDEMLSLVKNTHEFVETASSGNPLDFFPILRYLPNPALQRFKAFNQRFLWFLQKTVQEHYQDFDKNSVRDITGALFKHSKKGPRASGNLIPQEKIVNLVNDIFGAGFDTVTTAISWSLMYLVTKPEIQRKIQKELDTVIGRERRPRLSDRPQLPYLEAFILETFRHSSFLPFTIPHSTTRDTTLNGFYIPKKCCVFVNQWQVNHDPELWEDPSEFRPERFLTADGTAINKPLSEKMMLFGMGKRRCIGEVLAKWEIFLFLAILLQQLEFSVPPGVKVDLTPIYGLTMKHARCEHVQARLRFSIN
Nature of the assay: Inhibition of human CYP1A2. In kind it is ADME.

Another assay has as its target Cytochrome P450 2C9 (Homo sapiens, UniProt P11712). Description: Inhibition of human CYP2C9. The assay is classed as ADME.
A further assay has as its target Cytochrome P450 3A4 (Homo sapiens, UniProt P08684). Description: Inhibition of human CYP3A4. The assay is classed as ADME.

Sequence of Cytochrome P450 2D6 (P10635 whole entry): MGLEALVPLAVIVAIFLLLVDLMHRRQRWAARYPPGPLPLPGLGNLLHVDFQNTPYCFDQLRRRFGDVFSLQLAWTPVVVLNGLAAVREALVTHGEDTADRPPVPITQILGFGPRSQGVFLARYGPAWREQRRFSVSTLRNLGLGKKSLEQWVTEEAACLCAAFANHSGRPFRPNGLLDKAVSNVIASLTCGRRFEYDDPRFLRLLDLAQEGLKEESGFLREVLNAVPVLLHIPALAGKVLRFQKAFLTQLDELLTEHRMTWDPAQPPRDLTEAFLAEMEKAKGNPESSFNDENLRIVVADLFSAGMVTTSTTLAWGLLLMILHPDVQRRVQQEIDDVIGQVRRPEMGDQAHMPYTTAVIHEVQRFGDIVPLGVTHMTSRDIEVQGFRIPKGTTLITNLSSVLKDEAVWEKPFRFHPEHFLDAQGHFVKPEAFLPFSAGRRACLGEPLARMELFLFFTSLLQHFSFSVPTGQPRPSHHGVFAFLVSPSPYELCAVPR
Sequence of Cytochrome P450 2C9 (P11712 whole entry): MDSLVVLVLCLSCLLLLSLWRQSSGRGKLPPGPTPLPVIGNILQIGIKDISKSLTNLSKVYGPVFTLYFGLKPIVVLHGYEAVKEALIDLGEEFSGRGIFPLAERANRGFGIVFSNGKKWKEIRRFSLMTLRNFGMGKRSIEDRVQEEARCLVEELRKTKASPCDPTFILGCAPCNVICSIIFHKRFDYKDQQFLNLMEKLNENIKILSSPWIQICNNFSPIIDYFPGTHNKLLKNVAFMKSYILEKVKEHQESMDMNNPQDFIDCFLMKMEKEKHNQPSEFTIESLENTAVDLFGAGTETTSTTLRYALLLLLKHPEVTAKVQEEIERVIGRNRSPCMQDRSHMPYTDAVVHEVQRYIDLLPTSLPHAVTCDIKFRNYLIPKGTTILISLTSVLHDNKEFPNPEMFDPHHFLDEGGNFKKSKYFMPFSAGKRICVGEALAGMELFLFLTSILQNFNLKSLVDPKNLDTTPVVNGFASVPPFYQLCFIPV
Sequence of Cytochrome P450 3A4 (P08684 whole entry): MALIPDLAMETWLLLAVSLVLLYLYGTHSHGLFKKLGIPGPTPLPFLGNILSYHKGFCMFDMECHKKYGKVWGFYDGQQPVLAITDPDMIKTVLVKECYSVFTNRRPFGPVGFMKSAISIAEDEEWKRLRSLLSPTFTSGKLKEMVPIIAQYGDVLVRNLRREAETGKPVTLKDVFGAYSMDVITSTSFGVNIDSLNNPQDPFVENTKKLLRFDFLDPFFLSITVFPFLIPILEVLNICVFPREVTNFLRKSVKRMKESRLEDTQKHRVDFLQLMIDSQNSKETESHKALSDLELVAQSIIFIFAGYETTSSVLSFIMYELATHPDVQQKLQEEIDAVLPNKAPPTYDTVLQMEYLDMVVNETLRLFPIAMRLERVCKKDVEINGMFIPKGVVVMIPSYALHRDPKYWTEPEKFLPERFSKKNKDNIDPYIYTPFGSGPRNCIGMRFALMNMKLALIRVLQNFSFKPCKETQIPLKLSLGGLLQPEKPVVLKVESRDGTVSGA
Sequence of C-C chemokine receptor type 2 (Homo sapiens) (P41597 whole entry, looked up): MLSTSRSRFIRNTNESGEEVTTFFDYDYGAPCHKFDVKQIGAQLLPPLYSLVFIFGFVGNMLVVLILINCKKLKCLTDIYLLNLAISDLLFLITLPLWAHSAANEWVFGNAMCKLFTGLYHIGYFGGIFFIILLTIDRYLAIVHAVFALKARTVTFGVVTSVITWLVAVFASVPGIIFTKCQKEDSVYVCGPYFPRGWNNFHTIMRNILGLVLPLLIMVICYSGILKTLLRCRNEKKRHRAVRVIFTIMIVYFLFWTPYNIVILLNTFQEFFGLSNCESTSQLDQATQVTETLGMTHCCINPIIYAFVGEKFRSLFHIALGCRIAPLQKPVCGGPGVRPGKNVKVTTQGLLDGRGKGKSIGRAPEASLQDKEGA
Sequence of Cytochrome P450 2C19 (P33261 whole entry): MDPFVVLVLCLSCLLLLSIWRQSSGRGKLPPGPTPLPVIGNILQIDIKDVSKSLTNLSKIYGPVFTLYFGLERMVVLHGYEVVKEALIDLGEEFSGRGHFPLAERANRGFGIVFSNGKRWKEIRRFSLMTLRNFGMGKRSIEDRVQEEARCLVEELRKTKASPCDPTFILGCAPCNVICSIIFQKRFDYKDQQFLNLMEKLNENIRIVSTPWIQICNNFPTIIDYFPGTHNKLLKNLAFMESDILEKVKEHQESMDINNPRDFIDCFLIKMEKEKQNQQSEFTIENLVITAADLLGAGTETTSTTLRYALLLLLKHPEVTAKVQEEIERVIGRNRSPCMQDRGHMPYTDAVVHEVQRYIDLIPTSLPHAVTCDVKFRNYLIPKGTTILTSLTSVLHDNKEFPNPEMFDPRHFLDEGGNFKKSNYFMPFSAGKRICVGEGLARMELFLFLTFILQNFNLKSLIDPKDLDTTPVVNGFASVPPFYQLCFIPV
Sequence of C-C chemokine receptor type 5 (Homo sapiens) (P51681 whole entry, looked up): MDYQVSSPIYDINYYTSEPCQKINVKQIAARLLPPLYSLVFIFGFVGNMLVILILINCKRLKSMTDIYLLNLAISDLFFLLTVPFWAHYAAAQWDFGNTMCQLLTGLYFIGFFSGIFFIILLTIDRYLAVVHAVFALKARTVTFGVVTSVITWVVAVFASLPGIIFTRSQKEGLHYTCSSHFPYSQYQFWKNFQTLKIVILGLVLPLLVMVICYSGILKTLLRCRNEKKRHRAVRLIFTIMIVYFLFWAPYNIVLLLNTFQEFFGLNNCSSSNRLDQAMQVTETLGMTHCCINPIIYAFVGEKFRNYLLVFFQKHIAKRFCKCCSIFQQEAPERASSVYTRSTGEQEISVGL

Regarding `CN(C(=O)c1ccccc1C(=O)N[C@@H]1C[C@H]2CC[C@@H](C1)N2Cc1ccc2cc(F)ccc2c1)C1CCCCC1`, the pIC50 is 7.36 in assay [1] and 5.54 at Cytochrome P450 2D6. As to `O=C(N[C@@H]1C[C@H]2CC[C@@H](C1)N2Cc1ccc2cc(F)ccc2c1)c1ccccc1-n1ccnc1`, the pIC50 in assay [1] is 6.66. On to `O=C(N[C@@H]1C[C@H]2CC[C@@H](C1)N2Cc1ccc2cc(F)ccc2c1)c1cc[n+]([O-])cc1C(=O)N1CCCCC1`, for which the result in assay [2], in assay [3] and in [4] was inactive. As for `O=C(N[C@@H]1C[C@H]2CC[C@@H](C1)N2Cc1ccc2cc(F)ccc2c1)c1cnccc1C(=O)N1CCCCC1`, the pIC50 was 7.07 in assay [1] and 4.57 at Cytochrome P450 2D6.

Regarding `CN1CCN(C(=O)c2ccccc2C(=O)N[C@@H]2C[C@H]3CC[C@@H](C2)N3Cc2ccc3cc(F)ccc3c2)CC1`, the pIC50 in [1] is 6.32; on Cytochrome P450 2D6, 5.15. As to `O=C(N[C@@H]1C[C@H]2CC[C@@H](C1)N2Cc1ccc2cc(F)ccc2c1)c1ccccc1C(=O)N1CCOCC1`, the negative logarithm of the IC50 (pIC50) in assay [1] is 6.17; on Cytochrome P450 2D6 it was 5.09. `O=C(N[C@@H]1C[C@H]2CC[C@@H](C1)N2Cc1ccc2cc(F)ccc2c1)c1ccccc1OC1CCCCC1`: the values for the negative logarithm of the IC50 (pIC50) (in assay [1]; on Cytochrome P450 2D6) were 6.93 and 6.24, respectively. For `O=C(N[C@@H]1C[C@H]2CC[C@@H](C1)N2Cc1ccc2cc(F)ccc2c1)c1ccccc1-c1cncnc1`, the pIC50 was 7.03 in [1] and 5.54 on Cytochrome P450 2D6. On the same counts, the results for `O=C(N[C@@H]1C[C@H]2CC[C@@H](C1)N2Cc1ccc2cc(F)ccc2c1)c1ccncc1C(=O)N1CCCCC1` are 7.89 and 5.17.

On to `O=C(N[C@@H]1C[C@H]2CC[C@@H](C1)N2Cc1ccc2cc(F)ccc2c1)c1ccccc1C(=O)N1CCCC1`, for which the negative logarithm of the IC50 (pIC50) in assay [1] is 6.65; on Cytochrome P450 2D6 it was 5.14. As to `O=C(N[C@@H]1C[C@H]2CC[C@@H](C1)N2Cc1ccc2cc(F)ccc2c1)c1cccnc1C(=O)N1CCCCC1`, the pIC50 in [1] was 7.01; on Cytochrome P450 2D6, 4.74. For `O=C(N[C@@H]1C[C@H]2CC[C@@H](C1)N2Cc1ccc2cc(F)ccc2c1)c1ccccc1-c1cccnc1`, the pIC50 in [1] is 7.54; at Cytochrome P450 2D6 it was 5.80.

Regarding `O=C(N[C@@H]1C[C@H]2CC[C@@H](C1)N2Cc1ccc2cc(F)ccc2c1)c1ncccc1C(=O)N1CCCCC1`, the figures for the pIC50 (in assay [1]; at Cytochrome P450 2D6) were 6.88 and 4.63, respectively.

As to `O=C(N[C@@H]1C[C@H]2CC[C@@H](C1)N2Cc1ccc2cc(F)ccc2c1)c1ccccc1N1CCCCC1`, the pIC50 in [1] is 6.55.

For the compound `O=C(N[C@@H]1C[C@H]2CC[C@@H](C1)N2Cc1ccc2cc(F)ccc2c1)c1ccccc1-c1nccs1`, the pIC50 in [1] was 7.05; at Cytochrome P450 2D6, 5.62. Consider `O=C(NC1C[C@H]2CC[C@H](C1)N2Cc1ccc2cc(F)ccc2c1)c1ccccc1-c1ccccc1` (stereo partly specified), for which the pIC50 on Cytochrome P450 2C19, on Cytochrome P450 1A2, on Cytochrome P450 2C9 and on Cytochrome P450 3A4 was < 4.70 in each case. `O=C(N[C@@H]1C[C@H]2CC[C@@H](C1)N2Cc1ccc2cc(F)ccc2c1)c1ccccc1C(=O)N1CCCCCC1`: the pIC50 in assay [1] was 7.92; at Cytochrome P450 2D6, 5.52. Regarding `O=C(N[C@@H]1C[C@H]2CC[C@@H](C1)N2Cc1ccc2cc(F)ccc2c1)c1ccccc1-n1cccc1`, the pIC50 in [1] is 6.66. In the case of `O=C(N[C@@H]1C[C@H]2CC[C@@H](C1)N2Cc1ccc2cc(F)ccc2c1)c1ccccc1C(=O)N1CCCCC1`, the results for the pIC50 (in [1]; at Cytochrome P450 2D6) were 7.64 and 5.19, respectively. In the case of `O=C(N[C@@H]1C[C@H]2CC[C@@H](C1)N2Cc1ccc2cc(F)ccc2c1)c1ccccc1-c1ccncc1`, in assay [1], the pIC50 is 6.21.

Take `O=C(N[C@@H]1C[C@H]2CC[C@@H](C1)N2Cc1ccc2cc(F)ccc2c1)c1ccccc1-c1ccccn1`: the pIC50 in [1] was 7.24; on Cytochrome P450 2D6, 5.40.
